Test results reported in publication doi:10.1101/2024.08.19.608619, “Discovery of potent SARS-CoV-2 nsp3 macrodomain inhibitors uncovers lack of translation to cellular antiviral response” (bioRxiv, 2024).
In brackets after ≈: the same amount, converted by molar mass. Several values for one entry are separate records, joined by “and”; a condition that tells them apart may be missing. Equal entries are not always repeated. Where two headings read alike, the source gives them in different places.

What was measured:
[1] = test system: SARS-CoV-2, isolate USA-WA1/2020; experiment: microbe, parasite or virus in culture; assay type: cell-based; settings: HeLa-ACE2 SARS-CoV-2 antiviral effect without P-gp inhibitor; for perc_max_measured: maximum measured response of dose series; for perc_min_measured: minimum measured response of dose series; for EC50: read-out: ec50; for EC90: read-out: ec90
[2] = Hepatic microsomal stability, HLM; assay type: in vitro ADME, human; settings: In vitro human liver microsomal stability; for perc_remaining_no_cofactor: no cofactor
[3] = Hepatic microsomal stability, MLM; assay type: in vitro ADME
HeLa-ACE2 cells = settings: for perc_max_measured: highest measured response of the dose series; for perc_min_measured: lowest measured response of the dose series
LogD = settings: pH 7.4; In vitro LogD
in vitro = settings: human, hela-ace2 cells, 50.0
[4] = In vitro kinetic solubility; settings: In vitro kinetic solubility, ph 7.4
[5] = Permeability Papp (AB) MDR1/MDCKII; settings: for papp_a_to_b_mean: A to B
[6] = In vitro mouse liver microsomal stability
[7] = In vitro mouse liver microsomal stability, no cofactor
[8] = In vitro MDR1-MDCKII permeability, no inhibitor
[9] = In vitro MDR1-MDCKII permeability, recovery A to B, no inhibitor
[10] = protocol HeLa-ACE2 cytotoxicity
[11] = In vitro MDR1-MDCKII permeability, mean
[12] = In vitro MDR1-MDCKII permeability, recovery A to B, mean
[13] = In vitro mouse liver microsomal stability; no cofactor

Row | Structure (SMILES) | perc_max_measured [1] | perc_min_measured [1] | EC50 [1] [µM] | EC90 [1] [µM] | clint [2] [µL/min/mg] | perc_remaining [2] [%] | t_half [2] [min] | perc_remaining_no_cofactor [2] [%] | clint [3, 6] [µL/min/mg] | perc_remaining [3, 6] [%] | t_half [3, 6] [min] | perc_remaining_no_cofactor [3, 7] [%] | CC50 (HeLa-ACE2 cells; HeLa-ACE2 cytotoxicity) [µM] | cc10 (HeLa-ACE2 cells; HeLa-ACE2 cytotoxicity) [µM] | perc_max_measured (HeLa-ACE2 cells; HeLa-ACE2 cytotoxicity) [%] | perc_min_measured (HeLa-ACE2 cells; HeLa-ACE2 cytotoxicity) [%] | logd (LogD) | CC50 at 24 h (in vitro) [µM] | solubility_mean [4] [µM] | perc_recovery_a_to_b_mean [5, 9] | also measured
1 | CC(C)[C@H](Nc1ncnc2[nH]c(-c3cnn(C)c3)cc12)c1ccc2c(c1)S(=O)(=O)CCC2 (single isomer, unassigned) [ASAP-0012327] | 111.115% | 52.798% | > 20 | > 20 | 169.0 | 7.0 | 9.9 | 95.0 | 255.0 | 1.0 | 6.5 | 98.0 | > 20 | > 20.0 | 100.334 | 94.258 | 2.9 | > 20 | 111 (≈ 50 µg/mL) | 65.0% | papp_a_to_b_mean [5, 8]: 1.18 ×10⁻⁶ cm/s
2 | CC(C)(C)[C@H](Nc1ncnc2[nH]c(-c3cnn(CC(N)=O)c3)cc12)c1ccc2c(c1)OCCO2 (single isomer, unassigned) [ASAP-0012330] | 108.484% | 91.129% | > 20 | > 20 | 153.0 | 9.0 | 10.9 | 100.0 | 44.0 | 48.0 | 38.3 | 105.0 | > 20 | > 20.0 | 98.779 | 88.572 | 3.0 | > 20 | 89 (≈ 41.1 µg/mL) | 67.4% | papp_a_to_b_mean [5, 8]: 0.364 ×10⁻⁶ cm/s
3 | CNC(=O)c1cccc(-c2cc3c(N[C@H](c4ccc5c(c4)S(=O)(=O)CCC5)C(C)C)ncnc3[nH]2)c1 (single isomer, unassigned) [ASAP-0012338] | 112.086% | 84.591% | > 20 | > 20 | 746.0 | 0.0 | 2.2 | 99.0 | 197.0 | 4.0 | 8.5 | 106.0 |  |  |  |  | 3.8 | > 20 | 13 (≈ 6.55 µg/mL) | 61.5% | CC50 (HeLa-ACE2 cells; [10]): > 20 µM; cc10 (HeLa-ACE2 cells; [10]): > 20.0 µM; perc_max_measured (HeLa-ACE2 cells; [10]): 103.266%; perc_min_measured (HeLa-ACE2 cells; [10]): 80.243%; papp_a_to_b_mean [5, 8]: 0.502 ×10⁻⁶ cm/s
4 | CNC(=O)c1cc2c(N[C@@H](c3ccc4c(c3)S(=O)(=O)CCC4)C(C)C)ncnc2[nH]1 (single isomer, unassigned) [ASAP-0012346] | 104.869% | 90.681% | > 20 | > 20 | 682.0 | 0.0 | 2.4 | 94.0 | 23.0 | 69.0 | 71.6 | 97.0 |  |  |  |  | 2.4 | > 20 | 397 (≈ 170 µg/mL) | 74.6% and 66.3% | CC50 (HeLa-ACE2 cells; [10]): > 20 µM; cc10 (HeLa-ACE2 cells; [10]): > 20.0 µM; perc_max_measured (HeLa-ACE2 cells; [10]): 108.34%; perc_min_measured (HeLa-ACE2 cells; [10]): 94.319%; papp_b_to_a_mean ([5]; In vitro MDR1-MDCKII permeability, B to A, no inhibitor): 0.72 ×10⁻⁶ cm/s; efflux_ratio [5, 8]: 21.1; perc_recovery_b_to_a_mean ([5]; In vitro MDR1-MDCKII permeability, recovery B to A, no inhibitor): 68.8%; perc_recovery_a_to_b_inhibitor_mean ([5]; MDR1-MDCKII, recovery A to B, with inhibitor Verapamil): 98.1%; perc_recovery_b_to_a_inhibitor_mean ([5]; MDR1-MDCKII, recovery B to A, with inhibitor Verapamil): 86.6%
5 | CC(C)[C@H](Nc1ncnc2[nH]c(-c3cnn(C)c3C#N)cc12)c1ccc2c(c1)NC(=O)CO2 (single isomer, unassigned) [ASAP-0013255] | 72.17% | 6.652% | 1.33 | > 20 | 115.0 | 16.0 | 14.6 | 101.0 | 81.0 | 27.0 | 20.7 | 96.0 | > 20 | > 20.0 | 92.424 | 38.485 | 4.4 | > 20 | 26 (≈ 11.5 µg/mL) |  | papp_a_to_b_mean [5, 11]: 1.22 ×10⁻⁶ cm/s; perc_recovery_a_to_b_mean [5, 12]: 51.1%
6 | CC(C)[C@@H](Nc1ncnc2[nH]c(-c3cnn(CCC(N)=O)c3)cc12)c1ccc2c(c1)OCCO2 [ASAP-0008482] | 121.913% and 112.19% | 97.771% and 96.19% | > 20 | > 20 | 99.0 | 19.0 | 16.9 | 108.0 | 62.0 | 36.0 | 27.1 |  |  |  |  |  | 3.0 | > 20 | 236 (≈ 109 µg/mL) |  | perc_remaining_no_cofactor [3, 13]: 106.0%; CC50 (HeLa-ACE2 cells; [10]): > 20 µM; perc_max_measured (HeLa-ACE2 cells; [10]): 111.916% and 92.58%; perc_min_measured (HeLa-ACE2 cells; [10]): 82.711% and 77.006%; papp_a_to_b_mean [5, 11]: 1.46 ×10⁻⁶ cm/s; perc_recovery_a_to_b_mean [5, 12]: 88.9%
7 | CC(C)[C@@H](Nc1ncnc2[nH]c(-c3cnn(CC(=O)N(C)C)c3)cc12)c1ccc2c(c1)OCCO2 [ASAP-0008485] | 120.313% and 102.904% | 86.961% and 72.697% | > 20 | > 20 | 142.0 | 9.0 | 11.8 | 110.0 | 59.0 | 39.0 | 28.1 |  |  |  |  |  | 2.3 | > 20 | 210 (≈ 99.9 µg/mL) |  | perc_remaining_no_cofactor [3, 13]: 98.0%; CC50 (HeLa-ACE2 cells; [10]): > 20 µM; cc10 (HeLa-ACE2 cells; [10]): > 20.0 µM; perc_max_measured (HeLa-ACE2 cells; [10]): 96.628% and 85.957%; perc_min_measured (HeLa-ACE2 cells; [10]): 73.752% and 75.897%; papp_a_to_b_mean [5, 11]: 1.15 ×10⁻⁶ cm/s; perc_recovery_a_to_b_mean [5, 12]: 80.8%
8 | CCNC(=O)c1cc2c(N[C@@H](c3ccc4c(c3)S(=O)(=O)NCC4)C(C)C)ncnc2[nH]1 [ASAP-0011076] | 101.15% | 78.382% | > 20 | > 20 | 85.0 | 24.0 | 19.7 | 107.0 | 45.0 | 49.0 | 36.8 | 101.0 | > 20 | > 20.0 | 99.412 | 92.285 | 2.6 | > 20 | 344 (≈ 152 µg/mL) |  | papp_a_to_b_mean [5, 11]: 1.96 ×10⁻⁶ cm/s; perc_recovery_a_to_b_mean [5, 12]: 97.7%
9 | CC(C)[C@@H](Nc1ncnc2[nH]c(-c3cnn(C)c3)cc12)c1ccc2c(c1)S(=O)(=O)NCC2 [ASAP-0011192] | 105.419% | 69.993% | > 20 | > 20 | 120.0 | 13.0 | 13.9 | 98.0 | 87.0 | 23.0 | 19.1 | 92.0 | > 20 | > 20.0 | 100.208 | 90.498 | 3.2 | > 20 | 105 (≈ 47.4 µg/mL) |  | papp_a_to_b_mean [5, 11]: 1.58 ×10⁻⁶ cm/s; perc_recovery_a_to_b_mean [5, 12]: 93.2%
10 | CC(C)[C@@H](Nc1ncnc2[nH]c(-c3ccc4nnn(C)c4c3)cc12)c1ccc2c(c1)S(=O)(=O)CCC2 [ASAP-0011201] | 110.665% | 33.895% | 3.64 | > 20 | 752.0 | 0.0 | 2.2 | 93.0 | 219.0 | 3.0 | 7.6 | 93.0 | > 20 | > 20.0 | 106.149 | 70.638 | 3.4 | > 20 | 6 (≈ 3.01 µg/mL) | 53.6% | papp_a_to_b_mean [5, 8]: 0.827 ×10⁻⁶ cm/s
